Source: PubChem BioAssay AID1259407 (Chemical Carcinogenesis Research Information System (CCRIS), 2018)
Calls of active or inactive are those of the source. How the calls were made is not given here.

Tested on: CCRIS mutagenicity, Ames/micronucleus/aberration tests
Experiment: CCRIS mutagenicity studies
[1] = Test System: AMES SALMONELLA TYPHIMURIUM, Strain/Indicator: TA98, Metabolic Activation: NONE, Method: STANDARD PLATE
[2] = Test System: AMES SALMONELLA TYPHIMURIUM, Strain/Indicator: TA100, Metabolic Activation: NONE, Method: STANDARD PLATE
[3] = Test System: AMES SALMONELLA TYPHIMURIUM, Strain/Indicator: TA1537, Metabolic Activation: NONE, Method: STANDARD PLATE
[4] = Test System: AMES SALMONELLA TYPHIMURIUM, Strain/Indicator: TA98, Metabolic Activation: NONE, Method: PREINCUBATION
[5] = Test System: AMES SALMONELLA TYPHIMURIUM, Strain/Indicator: TA98, Metabolic Activation: RAT, LIVER, S-9, AROCLOR 1254, Method: STANDARD PLATE
[6] = Test System: AMES SALMONELLA TYPHIMURIUM, Strain/Indicator: TA100, Metabolic Activation: NONE, Method: PREINCUBATION
[7] = Test System: AMES SALMONELLA TYPHIMURIUM, Strain/Indicator: TA100, Metabolic Activation: RAT, LIVER, S-9, AROCLOR 1254, Method: STANDARD PLATE
[8] = Test System: AMES SALMONELLA TYPHIMURIUM, Strain/Indicator: TA1535, Metabolic Activation: NONE, Method: PREINCUBATION
[9] = Test System: AMES SALMONELLA TYPHIMURIUM, Strain/Indicator: TA1535, Metabolic Activation: NONE, Method: STANDARD PLATE
[10] = Test System: AMES SALMONELLA TYPHIMURIUM, Strain/Indicator: TA1537, Metabolic Activation: NONE, Method: PREINCUBATION

Structure (SMILES): Nc1ccc(-c2ccc(N)c([N+](=O)[O-])c2)cc1
- mutagenic call (Test System: AMES SALMONELLA TYPHIMURIUM, Strain/Indicator: TA98(1,8-DNP6), Metabolic Activation: NONE, Method: STANDARD PLATE): active; positive
- mutagenic call (Test System: AMES SALMONELLA TYPHIMURIUM, Strain/Indicator: TA98(1,8-DNP6), Metabolic Activation: S-9, Method: STANDARD PLATE): active; positive
- mutagenic call [1]: active; positive
- mutagenic call (Test System: AMES SALMONELLA TYPHIMURIUM, Strain/Indicator: TA98, Metabolic Activation: S-9, Method: STANDARD PLATE): active; positive
- mutagenic call [2]: inactive; negative
- mutagenic call (Test System: AMES SALMONELLA TYPHIMURIUM, Strain/Indicator: TA100, Metabolic Activation: S-9, Method: STANDARD PLATE): active; positive

Structure (SMILES): CN(C)CCNC(=O)c1cccn2c(=O)c3ccccc3nc12
- mutagenic call [3]: active; positive

Structure (SMILES): C1CC[C@H]2O[C@H]2C1
- mutagenic call (Test System: AMES SALMONELLA TYPHIMURIUM, Strain/Indicator: TA98, Metabolic Activation: HAMSTER, LIVER, S-9, AROCLOR 1254, Method: STANDARD PLATE): active; positive
- mutagenic call [4]: inactive; negative
- mutagenic call (Test System: AMES SALMONELLA TYPHIMURIUM, Strain/Indicator: TA98, Metabolic Activation: RAT LIVER S-9, PHENOBARBITAL AND BETA-NAPHTHOFLAVONE, Method: PREINCUBATION): inactive; negative
- mutagenic call [5]: active; positive
- mutagenic call (Test System: AMES SALMONELLA TYPHIMURIUM, Strain/Indicator: TA100, Metabolic Activation: HAMSTER, LIVER, S-9, AROCLOR 1254, Method: STANDARD PLATE): active; positive
- mutagenic call [6]: active; positive
- mutagenic call [2]: active; positive
- mutagenic call (Test System: AMES SALMONELLA TYPHIMURIUM, Strain/Indicator: TA100, Metabolic Activation: RAT LIVER S-9, PHENOBARBITAL AND BETA-NAPHTHOFLAVONE, Method: PREINCUBATION): active; positive
- mutagenic call [7]: active; positive
- mutagenic call [8]: active; positive
- mutagenic call [9]: active; positive
- mutagenic call (Test System: AMES SALMONELLA TYPHIMURIUM, Strain/Indicator: TA1535, Metabolic Activation: RAT LIVER S-9, PHENOBARBITAL AND BETA-NAPHTHOFLAVONE, Method: PREINCUBATION): active; positive
- mutagenic call [10]: inactive; negative
- mutagenic call (Test System: AMES SALMONELLA TYPHIMURIUM, Strain/Indicator: TA1537, Metabolic Activation: RAT LIVER S-9, PHENOBARBITAL AND BETA-NAPHTHOFLAVONE, Method: PREINCUBATION): inactive; negative
- mutagenic call (Test System: AMES SALMONELLA TYPHIMURIUM, Strain/Indicator: TA1538, Metabolic Activation: NONE, Method: PREINCUBATION): inactive; negative
- mutagenic call (Test System: AMES SALMONELLA TYPHIMURIUM, Strain/Indicator: TA1538, Metabolic Activation: RAT LIVER S-9, PHENOBARBITAL AND BETA-NAPHTHOFLAVONE, Method: PREINCUBATION): inactive; negative
- mutagenic call (Test System: E. COLI, Strain/Indicator: WP2UVRA, Metabolic Activation: NONE, Method: PREINCUBATION): inactive; negative
- mutagenic call (Test System: E. COLI, Strain/Indicator: WP2UVRA, Metabolic Activation: RAT LIVER S-9, PHENOBARBITAL AND BETA-NAPHTHOFLAVONE, Method: PREINCUBATION): active; positive
- mutagenic call (Test System: MOUSE LYMPHOMA, Strain/Indicator: L5178Y (TK+/TK-), Metabolic Activation: NONE, Method: SUSPENSION/PLATE): active; positive. reevaluation of results: positive
- mutagenic call (Test System: Mouse lymphoma, Strain/Indicator: L5178Y (tk+/tk-), Metabolic Activation: Rat, Liver, S-9, Aroclor 1254, Method: Suspension/plate): active; positive

Structure (SMILES): CCCCN(CCO)CCCC
- mutagenic call (Test System: AMES SALMONELLA TYPHIMURIUM, Strain/Indicator: TA98, Metabolic Activation: HAMSTER, LIVER, S-9, AROCLOR 1254 (10%), Method: PREINCUBATION): inactive; negative
- mutagenic call [4]: inactive; negative
- mutagenic call (Test System: AMES SALMONELLA TYPHIMURIUM, Strain/Indicator: TA98, Metabolic Activation: RAT, LIVER, S-9, AROCLOR 1254 (10%), Method: PREINCUBATION): inactive; negative
- mutagenic call (Test System: AMES SALMONELLA TYPHIMURIUM, Strain/Indicator: TA100, Metabolic Activation: HAMSTER, LIVER, S-9, AROCLOR 1254 (10%), Method: PREINCUBATION): inactive; negative
- mutagenic call [6]: inactive; negative
- mutagenic call (Test System: AMES SALMONELLA TYPHIMURIUM, Strain/Indicator: TA100, Metabolic Activation: RAT, LIVER, S-9, AROCLOR 1254 (10%), Method: PREINCUBATION): inactive; negative
- mutagenic call (Test System: AMES SALMONELLA TYPHIMURIUM, Strain/Indicator: TA1535, Metabolic Activation: HAMSTER, LIVER, S-9, AROCLOR 1254 (10%), Method: PREINCUBATION): inactive; negative
- mutagenic call [8]: inactive; negative
- mutagenic call (Test System: AMES SALMONELLA TYPHIMURIUM, Strain/Indicator: TA1535, Metabolic Activation: RAT, LIVER, S-9, AROCLOR 1254 (10%), Method: PREINCUBATION): inactive; negative
- mutagenic call (Test System: AMES SALMONELLA TYPHIMURIUM, Strain/Indicator: TA1537, Metabolic Activation: HAMSTER, LIVER, S-9, AROCLOR 1254 (10%), Method: PREINCUBATION): inactive; negative
- mutagenic call [10]: inactive; negative
- mutagenic call (Test System: AMES SALMONELLA TYPHIMURIUM, Strain/Indicator: TA1537, Metabolic Activation: RAT, LIVER, S-9, AROCLOR 1254 (10%), Method: PREINCUBATION): inactive; negative

Structure (SMILES): Nc1c(O)cccc1[N+](=O)[O-]
- mutagenic call [1]: inactive; negative
- mutagenic call [5]: inactive; negative
- mutagenic call [2]: inactive; negative
- mutagenic call [7]: inactive; negative
- mutagenic call [9]: inactive; negative
- mutagenic call (Test System: AMES SALMONELLA TYPHIMURIUM, Strain/Indicator: TA1535, Metabolic Activation: RAT, LIVER, S-9, AROCLOR 1254, Method: STANDARD PLATE): inactive; negative
- mutagenic call [3]: inactive; negative
- mutagenic call (Test System: AMES SALMONELLA TYPHIMURIUM, Strain/Indicator: TA1537, Metabolic Activation: RAT, LIVER, S-9, AROCLOR 1254, Method: STANDARD PLATE): inactive; negative
- mutagenic call (Test System: AMES SALMONELLA TYPHIMURIUM, Strain/Indicator: TA1538, Metabolic Activation: NONE, Method: STANDARD PLATE): inactive; negative
- mutagenic call (Test System: AMES SALMONELLA TYPHIMURIUM, Strain/Indicator: TA1538, Metabolic Activation: RAT, LIVER, S-9, AROCLOR 1254, Method: STANDARD PLATE): inactive; negative
